This is an account of results in US9540327B2, “Bis-quaternary ammonium salts and methods for modulating neuronal nicotinic acetylcholine receptors” (University of Kentucky Research Foundation, priority 2006, dated 2017).

Like-named read-outs stand apart in the source and are kept apart here.

In assay [1] the target is T1, Rat Striatal Nicotinic Receptors ([^3H]MLA binding sites; α7) (Rattus norvegicus, UniProt Q05941).
T1 construct: Whole brain, excluding cortex and cerebellum, was homogenized in 20 vol of ice-cold buffer; from tissue; host or cells: rat brain membranes (whole brain excluding cortex and cerebellum)
The assay is described as follows: Inhibition of [^3H]methyllycaconitine binding to rat brain membranes. On the procedure: (§1) Whole brain, excluding cortex and cerebellum, was homogenized in 20 vol of ice-cold buffer, containing (in mM): 2 HEPES, 11.8 NaCl, 0.48 KCl, 0.25 CaCl2 and 0.12 MgSO4, pH 7.5. Homogenate was centrifuged (25,000 g, 15 min, 4° C.). Pellets were resuspended in 20 vol buffer and incubated at 37° C., for 10 min, cooled to 4° C. and centrifuged (25,000 g, 15 min, 4° C.). Pellets were resuspended and centrifuged using the same conditions. Final pellets were stored in assay buffer, containing (in mM): 20 HEPES, 118 NaCl, 4.8 KCl, 2.5 CaCl2, and 1.2 MgSO4, pH 7.5 at −70° C. Upon use, final pellets were resuspended in ˜20 vol assay buffer. Samples (250 μl) contained 100-140 μg of membrane protein, 3 nM [^3H]nicotine or 3 nM [^3H]methyllycaconitine, and analog (100 nM) in assay buffer containing 50 mM Tris. Control was in the absence of analog. In [^3H]nicotine and [^3H]methyllycaconitine binding assays, nonspecific binding was determined in the presence of 10 μM cytisine and 10 μM nicotine, respectively. Incubations proceeded for 60 min at room temperature using 96-well plates and were terminated by harvesting on Unifilter-96 GF/B filter plates presoaked in 0.5% polyethylenimine, using a Packard FilterMate harvester. After washing 5 times with 350 μl ice-cold assay buffer, filter plates were dried (60 min, […]), bottom-sealed, and filled with Packard's MicroScint 20 cocktail (40 μl/well). After 60 min, filter plates were top-sealed, and radioactivity determined using a Packard TopCount. Protein concentrations were determined using the Bradford dye-binding procedure bovine serum albumin as the standard.
(§2) […] Specific binding in the [^3H]NIC binding assay is calculated as the difference between the total binding of 3 nM [^3H]NIC and nonspecific binding in the presence of 10 μM cytisine. Specific binding for the [^3H]MLA binding assay is calculated as the difference between the total binding of 3 nM [^3H]MLA to the receptors alone and its nonspecific binding in the presence of 10 μM nicotine. Analog-induced inhibition of nicotine-evoked [^3H]DA release is calculated as a percent of that in the absence of the bis-quaternary ammonium analog.

The test system of assay [2] is Nicotine-evoked [^3H]Dopamine Release from Superfused Rat Striatal Slices. The assay is described as follows: Inhibition of nicotine-evoked [^3H]dopamine overflow from superfused rat striatal slices. The conditions noted are these: nicotine 10 μM; for inhibition at 0.1 µM: analog 100 nM, superfused rat striatal slices, read-out: Inhibition Nicotine-evoked [^3H]DA release (% inhibition at 100 nM). It is filed as cell-based. On the procedure:
The [^3H]dopamine overflow assay using superfused rat striatal slices preloaded with [^3H]dopamine was used to determine the ability of a probe concentration (100 nM) of each bis-quaternary ammonium analog to inhibited nicotine-evoked [^3H]dopamine overflow. Briefly, coronal slices of rat striata (500 μm, 6-8 mg) were obtained using a Mcllwain tissue chopper. Slices were incubated for 30 min in Krebs' buffer (in mM: 118 NaCl, 4.7 KCl, 1.2 MgCl2, 1.0 NaH2PO4, 1.3 CaCl2, 11.1 α-D-glucose, 25 NaHCO3, 0.11 L-ascorbic acid and 0.004 ethylenediaminetetraacetic acid (EDTA), pH 7.4, saturated with 95% O2/5% CO2) at 34° C. in a metabolic shaker. Slices were then incubated for an additional 30 min in fresh buffer containing 0.1 μM [^3H]dopamine. After rinsing, each slice was transferred to each one of 20 superfusion chambers, maintained at 34° C. and superfused (0.6 ml/min) with oxygenated Krebs' buffer in a Brandel Suprafusion 2500 (Biomedical Research and Development Laboratories, Inc., Gaithersburg, Md.). The buffer contained both nomifensine (10 μM), a dopamine uptake blocker, and pargyline (10 μM), a monoamine oxidase inhibitor, ensuring that [^3H]overflow primarily represented [^3H]dopamine, rather than [^3H]metabolites. Following superfusion for 60 min, two 4-min samples (2.4 ml/sample) were collected to determine basal [^3H]outflow. After collection of the second basal sample, slices from an individual rat were superfused for 40 min in the absence (0 nM; control) or presence of each bis-quaternary ammonium analog (100 nM) to determine the intrinsic activity of the analog, i.e., ability of the analog to evoke [^3H]overflow. Following 40 min of superfusion in the absence or presence of analog, nicotine (10 μM) was added to the superfusion buffer and samples were collected for an additional 40 min to determine the ability of the analog to inhibit nicotine-evoked [^3H]dopamine overflow. At least one striatal slice in each experiment was superfused for 40 min in the absence of analog, followed by superfusion with 10 μM nicotine to determine nicotine-evoked [^3H]dopamine overflow in the absence of analog (nicotine control). After collection of the superfusate samples, the slices were retrieved from the chambers and solubilized using 1 ml of TS-2 tissue solubilizer. Scintillation cocktail (4 ml) was added to the superfusate samples. The pH and volume of the solubilized tissue samples were adjusted to that of the superfusate samples. Radioactivity in the superfusate and tissue samples was determined by liquid scintillation spectroscopy (Packard model B 1600 TR Scintillation Counter, Downer's Grove, Ill.).
For individual analogs, a complete concentration response was determined using the following methodology. Rat striatal slices (500 μm thickness, 6-8 mg wet weight) were incubated for 30 minutes in Krebs buffer (118 mM NaCl, 4.7 mM KCl, 1.2 mM MgCl2, 1.0 mM NaH2PO4, 1.3 mM CaCl2, 11.1 mM glucose, 25 mM NaHCO3, 0.11 mM L-ascorbic acid, and 0.004 mM disodium EDTA; pH 7.4, and saturated with 95% O2/5% CO2) in a metabolic shaker at 34° C. Slices were rinsed with 15 mL of fresh buffer and incubated for an additional 30 minutes in fresh buffer containing 0.1 μM [^3H]dopamine (DA; 6 slices/3 mL). Subsequently, slices were rinsed with 15 mL of fresh buffer and transferred to a glass superfusion chamber. Slices were superfused (1.0 mL/min) for 60 minutes with Krebs buffer containing nomifensine (10 μM) and pargyline (10 μM) and maintained at 34° C., pH 7.4, with continual aeration (95% O2/5% CO2). Three 5-minute samples (5 mL each) were collected to determine basal outflow of [^3H]DA. The bis-quaternary analogs were added to the superfusion buffer after the collection of the third sample and remained in the buffer until 12 consecutive five minute samples were collected. Subsequently, S-(−)-nicotine (10 μM) was added to the buffer and an additional 12 consecutive five minute samples were collected. […]

Assay [3] addresses T2, Rat Striatal Nicotinic Receptors ([^3H]NIC binding sites; α4β2) (Rattus norvegicus, UniProt P09483+P12390).
T2 construct: Whole brain, excluding cortex and cerebellum, was homogenized in 20 vol of ice-cold buffer; from tissue; host or cells: rat brain membranes (whole brain excluding cortex and cerebellum)
Briefly: Inhibition of [^3H]nicotine binding to rat brain membranes. On the procedure:
as §1, §2

[4] abbreviates: 3 nM [^3H]methyllycaconitine, nonspecific binding with 10 μM nicotine, rat brain membranes, read-out: Inhibition of [^3H]MLA Binding Ki (μM; M ± SEM).
[5] abbreviates: 3 nM [^3H]nicotine, nonspecific binding with 10 μM cytisine, rat brain membranes, read-out: Inhibition of [^3H]Nicotine binding Ki (μM; M ± SEM).

T2 sequence (P09483 31-630): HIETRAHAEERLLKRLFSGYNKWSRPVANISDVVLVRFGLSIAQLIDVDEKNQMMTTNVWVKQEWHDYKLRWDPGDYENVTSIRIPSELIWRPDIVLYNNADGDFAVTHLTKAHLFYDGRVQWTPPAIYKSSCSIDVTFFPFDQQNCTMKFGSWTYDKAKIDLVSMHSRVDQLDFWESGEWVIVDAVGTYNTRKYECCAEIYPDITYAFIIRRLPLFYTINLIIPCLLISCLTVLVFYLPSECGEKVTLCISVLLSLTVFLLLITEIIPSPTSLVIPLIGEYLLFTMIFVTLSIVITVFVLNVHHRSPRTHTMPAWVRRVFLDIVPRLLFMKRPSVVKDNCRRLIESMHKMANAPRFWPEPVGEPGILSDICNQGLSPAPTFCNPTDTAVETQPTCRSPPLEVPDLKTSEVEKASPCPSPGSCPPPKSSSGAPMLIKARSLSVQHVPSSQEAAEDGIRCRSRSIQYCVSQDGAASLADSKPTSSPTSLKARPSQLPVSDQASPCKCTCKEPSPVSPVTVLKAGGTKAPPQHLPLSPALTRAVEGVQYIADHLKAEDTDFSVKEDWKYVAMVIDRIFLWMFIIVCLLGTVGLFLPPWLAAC
T2 sequence (P12390 25-500): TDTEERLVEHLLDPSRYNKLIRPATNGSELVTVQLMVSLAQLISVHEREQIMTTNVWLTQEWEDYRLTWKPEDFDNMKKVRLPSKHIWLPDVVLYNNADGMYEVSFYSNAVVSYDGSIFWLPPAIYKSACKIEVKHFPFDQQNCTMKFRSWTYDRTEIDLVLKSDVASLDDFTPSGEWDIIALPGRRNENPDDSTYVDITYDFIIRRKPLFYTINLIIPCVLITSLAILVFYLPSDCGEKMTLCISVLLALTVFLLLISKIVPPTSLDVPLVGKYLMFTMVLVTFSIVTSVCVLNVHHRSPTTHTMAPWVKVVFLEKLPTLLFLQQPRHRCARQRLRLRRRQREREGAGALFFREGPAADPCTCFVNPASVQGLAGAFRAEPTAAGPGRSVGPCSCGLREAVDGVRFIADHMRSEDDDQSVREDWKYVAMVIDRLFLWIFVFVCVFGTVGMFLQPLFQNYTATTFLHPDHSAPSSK
T1 sequence (Q05941 23-502): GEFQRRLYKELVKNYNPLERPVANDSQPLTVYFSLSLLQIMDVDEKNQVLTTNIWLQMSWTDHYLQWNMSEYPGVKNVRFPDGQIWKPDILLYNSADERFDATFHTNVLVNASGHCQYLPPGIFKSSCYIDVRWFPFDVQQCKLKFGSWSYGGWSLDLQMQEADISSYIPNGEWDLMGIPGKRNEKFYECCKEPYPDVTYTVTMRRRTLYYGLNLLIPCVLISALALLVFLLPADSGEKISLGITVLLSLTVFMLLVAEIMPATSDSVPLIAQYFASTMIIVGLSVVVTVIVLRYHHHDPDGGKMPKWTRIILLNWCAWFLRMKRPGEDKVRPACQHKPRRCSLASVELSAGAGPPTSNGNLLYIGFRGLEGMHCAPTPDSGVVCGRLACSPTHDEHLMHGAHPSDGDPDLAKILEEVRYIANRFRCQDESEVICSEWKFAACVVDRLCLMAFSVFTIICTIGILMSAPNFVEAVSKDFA

`C[n+]1cccc(CCCc2ccc[n+](C)c2)c1` [GZ-527A]: the Ki in assay [1] (setting [4]) was above 100 µM; in assay [3] (setting [5]), 8.2 ± 1.78 µM. For the same molecule, the inhibition at 0.1 µM in assay [2] was 32%.
On to `C[n+]1ccc(CCCc2cc[n+](C)cc2)cc1` [GZ-527B], for which the Ki was above 100 µM in assay [1] and 7.88 ± 1.68 µM in assay [3]. Further, the inhibition at 0.1 µM in assay [2] is 67%. In assay [2] (full concentration response, rat striatal slices), the “concentration dependent inhibition of the effect of nicotine to evoke [^3H]dopamine release (FIG. 1)” value is given as “concentration dependent inhibition”.
For `C[n+]1ccccc1CCCc1cccc[n+]1C` [GZ-528A], the figures for the Ki in assay [1] and in assay [3] were above 100 µM and 8.17 ± 0.17 µM, respectively. Further, in assay [2], the inhibition at 0.1 µM was 49%.
Take `Cc1cc(CCCc2cc(C)c[n+](C)c2)c[n+](C)c1` [GZ-528B]: the Ki in assay [1] (setting [4]) and in assay [3] (setting [5]) was above 100 µM in each case. The inhibition at 0.1 µM in assay [2] amounted to 30%.
`Cc1ccc[n+](CCCc2ccc[n+](C)c2)c1` [GZ-529A]: the Ki in assay [1] (setting [4]) and in assay [3] (setting [5]) was above 100 µM in each case. In assay [2], the inhibition at 0.1 µM was 43%.
Take `Cc1cc(C)c[n+](CCCc2ccc[n+](C)c2)c1` [GZ-529B]: the Ki in assay [1] and in assay [3] was above 100 µM throughout. In addition, in assay [2], the inhibition at 0.1 µM is 25%.
As to `CN1CCC[C@@H]1c1ccc[n+](CCCc2ccc[n+](C)c2)c1` [GZ-530A], the inhibitory constant (Ki) in assay [1] was above 100 µM; in assay [3], 6.62 ± 1.14 µM. For the same molecule, the inhibition at 0.1 µM in assay [2] was 43%.
Taken in the same sequence, the figures for `C[n+]1cccc(CCC[n+]2ccccc2)c1` [GZ-530B] were above 100 µM, 23.4 ± 3.94 µM and 9%.
